Reference: patent US5391540A, “Substituted pyridine compounds” (Rohm and Haas Company, priority 1993, dated 1995)

Legend:
Test in all cases: Pre-emergent herbicidal activity (Table A)
Type in all cases: in vivo
[1] = test system: Annual Bluegrass; settings: pre-emergence, Anbg, 11.2 kg/ha, 10-14 days, read-out: herbicidal rating (% inhibition)
Experimental: (§1) Tables A and B summarize results of tests conducted to determine the pre-emergent herbicidal activity of the compounds of this invention. The herbicidal ratings used in Tables A and B were assigned according to a scale based on the percent inhibition of each plant species. The herbicide rating symbols in Tables A and B are defined as follows: […]
(§2) One set of pre-emergent tests was conducted as follows:
(§3) Topsoil was placed in a pan and compacted to a depth of 0.95 to 1.27 cm. from the top of the pan. A predetermined number of seeds of each of several monocotyledonous and dicotyledonous annual plant species and/or vegetative propagules of various perennial plant species were placed on top of the soil. The soil required to level fill a pan after seeding or adding vegetative propagules was weighed into another pan. A known amount of the test compound dissolved or suspended in an organic solvent or water and applied in acetone or water as a carrier was thoroughly mixed with this cover soil, and the herbicide/soil mixture was used as a cover layer for the previously prepared pan. In Table A below the amounts of active ingredient were all equivalent to an application rate of 11.2 kilograms/hectare (kg/ha). After treatment, the pans were moved to a greenhouse bench where they were watered as needed to give adequate moisture for germination and growth.
(§4) Approximately 10-14 days (usually 11 days) after planting and treating, the plants were observed and the results recorded.
(§5) The plant species usually regarded as weeds which were utilized in one set of pre-emergent activity tests, the data for which are shown in Table A, are identified by letter headings printed diagonally above the columns according to the following legend: […]

[2] = test system: Indian Mustard; settings: Brassica juncea, pre-emergence, Inmu, 11.2 kg/ha, 10-14 days, read-out: herbicidal rating (% inhibition)
Experimental: as §1, §2, §3, §4, §5

[3] = test system: Seedling Johnsongrass; settings: Sorghum halepense, pre-emergence, Sejg, 11.2 kg/ha, 10-14 days, read-out: herbicidal rating (% inhibition)
Experimental: as §1, §2, §3, §4, §5

[4] = test system: Wild Buckwheat; settings: Fallopia convolvulus, pre-emergence, Wibw, 11.2 kg/ha, 10-14 days, read-out: herbicidal rating (% inhibition)
Experimental: as §1, §2, §3, §4, §5

[5] = test system: Barnyardgrass; settings: Echinochloa crus-galli, pre-emergence, Bygr, 11.2 kg/ha, 10-14 days, read-out: herbicidal rating (% inhibition)
Summary of the method: (§6)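 Seeds or perennial propagules set on compacted topsoil, then covered with soil mixed with a known amount of test compound applied in acetone or water carrier. Ratings assigned on a scale based on percent inhibition of each species.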

[6] = test system: Cocklebur; settings: Xanthium strumarium, pre-emergence, Cobu, 11.2 kg/ha, 10-14 days, read-out: herbicidal rating (% inhibition)
Summary of the method: as §6

[7] = test system: Downy Brome; settings: Bromus tectorum, pre-emergence, Dobr, 11.2 kg/ha, 10-14 days, read-out: herbicidal rating (% inhibition)
Summary of the method: as §6

[8] = test system: Morningglory; settings: Ipomoea, pre-emergence, Mogl, 11.2 kg/ha, 10-14 days, read-out: herbicidal rating (% inhibition)
Summary of the method: as §6

[9] = test system: Velvetleaf; settings: Abutilon theophrasti, pre-emergence, Vele, 11.2 kg/ha, 10-14 days, read-out: herbicidal rating (% inhibition)
Summary of the method: as §6

[10] = test system: Yellow Nutsedge; settings: Cyperus, pre-emergence, Yens, 11.2 kg/ha, 10-14 days, read-out: herbicidal rating (% inhibition)
Summary of the method: as §6

Measured: inhibition at 11200 g/ha

COC(=O)c1c(OC)nc(C(F)(F)F)c(C2OCC[S+]2[O-])c1CC(C)C (centres unmarked) [Compound 126, 3-pyridinecarboxylic acid, 2-methoxy-4-(2-methylpropyl)-5-(1,3-oxathiolan-2-yl)-6-(trifluoromethyl)-, methyl ester, S-oxide]
25 to 49%: [6]
0 to 24%: [10]
75 to 100%: all other assays above

COC(=O)c1c(OC)nc(C(F)(F)F)c(-c2cnco2)c1CC(C)C [Compound 114, 3-pyridinecarboxylic acid, 2-methoxy-4-(2-methylpropyl)-5-(5-oxazolyl)-6-(trifluoromethyl)-, methyl ester]
0 to 24%: [6]
50 to 74%: [8]
25 to 49%: [10]
75 to 100%: all other assays above

COC(=O)c1c(OC)nc(C(F)(F)F)c(C=NCCO)c1CC(C)C [Compound 128]
25 to 49%: [9]
50 to 74%: [4] | [8]
0 to 24%: [6] | [10]
75 to 100%: all other assays above

COC(=O)c1c(OC)nc(C(F)(F)F)c(C=O)c1C1CCC1 [Compound 139, 3-pyridinecarboxylic acid, 4-cyclobuty1-5-formy1-2-methoxy-6-(trifluoromethyl)-, methyl ester]
50 to 74%: [8]
0 to 24%: [6] | [10]
75 to 100%: all other assays above

COC(=O)c1c(OC)nc(C(F)(F)F)c(C2OCCCO2)c1CC(C)C [Compound 110, 3-pyridinecarboxylic acid, 5-(1,3-dioxan-2-yl)-2-methoxy-4-(2-methylpropyl)-6-(trifluoromethyl)-, methyl ester]
50 to 74%: [10]
75 to 100%: all other assays above

COc1nc(C(F)(F)F)c(CO)c(CC(C)C)c1C(=O)SC [Compound 134, 3-pyridinecarbothioic acid, 5-(hydroxymethyl)-2-methoxy-4-(2-methylpropyl)-6-(trifluoromethyl)-, S-methyl ester]
25 to 49%: [2]
50 to 74%: [9]
75 to 100%: [1] | [5]
0 to 24%: all other assays above

COC(=O)c1c(OC)nc(C(F)(F)F)c(C(=O)n2cncn2)c1C1CCC1 [Compound 141]
50 to 74%: [10]
0 to 24%: [6]
75 to 100%: all other assays above

COC(=O)c1c(OC)nc(C(F)(F)F)c(C(=O)SC)c1CC1CC1 [Compound 119, 3-pyridinecarboxylic acid, 4-(cyclopropylmethyl)-2-methoxy-5-[(methylthio)carbonyl]-6-(trifluoromethyl)-, methyl ester]
50 to 74%: [6]
75 to 100%: all other assays above

COC(=O)c1c(OC)nc(C(F)(F)F)c(C2OCCS2)c1CC(C)C (centres unmarked) [Compound 122, 3-pyridinecarboxylic acid, 2-methoxy-4-(2-methylpropyl)-5-(1,3-oxathiolan-2-yl)-6-(trifluoromethyl)-, methyl ester]
50 to 74%: [10]
0 to 24%: [6]
75 to 100%: all other assays above

COC(=O)c1c(OC)nc(C(F)(F)F)c(C#N)c1CC(C)C [Compound 106, 3-pyridinecarboxylic acid, 5-cyano-2-methoxy-4-(2-methylpropyl)-6-(trifluoromethyl)-, methyl ester]
0 to 24%: [3] | [6] | [9] | [10]
50 to 74%: [8]
75 to 100%: all other assays above

COc1nc(C(F)(F)F)c(C(=O)n2cccn2)c(CC(C)C)c1C(=O)SC [Compound 131, 3-pyridinecarbothioic acid, 2-methoxy-4-(2-methylpropyl)-5-(1H-pyrazo1-1-ylcarbonyl)-6-(trifluoromethyl)-, S-methyl ester]
50 to 74%: [6]
75 to 100%: all other assays above

COC(=O)c1c(OC)nc(C(F)(F)F)c(C(=O)n2cc(C#N)cn2)c1CC(C)C [Compound 111, 3-pyridinecarboxylic acid, 5-[(4-cyano-1H-pyrazo1-1-yl)carbonyl]-2-methoxy-4-(2-methylpropyl)-6-(trifluoromethyl)-, methyl ester]
0 to 24%: [6] | [10]
50 to 74%: [7]
75 to 100%: all other assays above

COC(=O)c1c(OC)nc(C(F)(F)F)c(C2OCCO2)c1CC(C)C [Compound 109, 3-pyridinecarboxylic acid, 5-(1,3-dioxolan-2-yl)-2-methoxy-4-(2-methylpropyl)-6-(trifluoromethyl)-, methyl ester]
75 to 100%: all assays above

COC(=O)c1c(OC)nc(C(F)(F)F)c(C2OCCS2(=O)=O)c1CC(C)C (centres unmarked) [Compound 127, 3-pyridinecarboxylic acid, 2-methoxy-4-(2-methylpropyl)-5-(3,3-dioxo-1,3-oxathiolan-2-yl)-6-(trifluoromethyl)-, methyl ester]
0 to 24%: [6] | [10]
25 to 49%: [8] | [9]
50 to 74%: [2] | [4]
75 to 100%: all other assays above
